Here are results for 19 compounds from patent US20090304692A1, “TRIAZINE COMPOUNDS AS PI3 KINASE AND MTOR INHIBITORS” (Wyeth, priority 2008, published 2009).

Like-named read-outs stand apart in the source and are kept apart here.

In test [1] the test system is human prostate PC3-mm2 tumor cell line. Description: In vitro cell culture growth assay (MTS), PC3-mm2. The conditions noted are these: Homo sapiens, PC3MM2, 72 h, MTS cell growth assay, three days after drug treatment, PC3-mm2 cells; read-out: IC50 PC3-mm2. The class given is cell-based. In general terms: Tetrazolium assays rely on reduction of a dye to a coloured formazan, in cell work by metabolically active cells.

The next test concerns the target PI3K-γ (Homo sapiens, UniProt P48736). Description: PI3K-gamma fluorescence polarization assay. The conditions noted are these: read-out: IC50 PI3Kγ.
In another test the target is Human mTOR (FLAG-TOR) (Homo sapiens, UniProt P42345). Nature of the test: mTOR kinase assay (DELFIA format, purified enzyme). The class given is biochemical. The conditions noted are these: read-out: IC50 mTOR.
Chain of Human mTOR (FLAG-TOR) (P42345 1360-2549 limits assumed): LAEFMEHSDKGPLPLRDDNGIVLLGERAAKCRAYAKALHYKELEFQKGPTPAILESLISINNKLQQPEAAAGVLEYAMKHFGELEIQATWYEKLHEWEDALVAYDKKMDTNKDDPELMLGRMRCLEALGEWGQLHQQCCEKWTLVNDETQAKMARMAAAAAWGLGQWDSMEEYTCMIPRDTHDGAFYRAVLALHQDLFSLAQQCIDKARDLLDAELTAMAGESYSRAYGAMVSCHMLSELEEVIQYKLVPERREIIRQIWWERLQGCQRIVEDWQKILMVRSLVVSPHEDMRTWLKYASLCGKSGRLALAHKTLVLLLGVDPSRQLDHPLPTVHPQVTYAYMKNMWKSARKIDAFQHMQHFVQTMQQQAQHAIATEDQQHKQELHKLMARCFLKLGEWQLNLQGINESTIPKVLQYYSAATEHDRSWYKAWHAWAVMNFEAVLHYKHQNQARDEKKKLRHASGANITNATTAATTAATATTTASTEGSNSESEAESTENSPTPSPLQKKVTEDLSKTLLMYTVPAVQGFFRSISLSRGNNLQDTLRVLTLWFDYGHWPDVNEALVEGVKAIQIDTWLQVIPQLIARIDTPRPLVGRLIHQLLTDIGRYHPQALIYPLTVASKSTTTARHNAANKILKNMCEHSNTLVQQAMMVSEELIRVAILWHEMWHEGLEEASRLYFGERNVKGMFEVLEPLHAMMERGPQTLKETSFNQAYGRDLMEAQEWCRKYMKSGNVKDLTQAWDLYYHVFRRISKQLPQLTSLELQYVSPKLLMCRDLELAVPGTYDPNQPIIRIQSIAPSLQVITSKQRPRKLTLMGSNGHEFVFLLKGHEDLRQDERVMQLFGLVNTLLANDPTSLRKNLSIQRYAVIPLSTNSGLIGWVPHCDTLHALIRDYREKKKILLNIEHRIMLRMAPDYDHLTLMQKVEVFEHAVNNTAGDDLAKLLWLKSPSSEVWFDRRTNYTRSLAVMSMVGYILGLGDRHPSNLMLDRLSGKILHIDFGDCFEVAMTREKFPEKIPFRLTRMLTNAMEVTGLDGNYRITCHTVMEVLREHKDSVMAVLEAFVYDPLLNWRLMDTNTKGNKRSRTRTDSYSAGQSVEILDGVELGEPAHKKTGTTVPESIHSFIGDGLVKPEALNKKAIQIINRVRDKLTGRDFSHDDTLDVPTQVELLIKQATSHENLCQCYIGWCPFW
The next test addresses PI3K-α (Homo sapiens, UniProt P42336). Description: PI3K-alpha fluorescence polarization assay. The conditions noted are these: read-out: IC50 PI3Kα. (In general: Fluorescence polarisation rises when a labelled molecule tumbles more slowly, as on binding a larger partner.)
For test [2], the system named is human breast MDA-MB-361 tumor cell line. Nature of the test: In vitro cell culture growth assay (MTS), MDA-MB-361. The class given is cell-based. The conditions noted are these: Homo sapiens, MTS cell growth assay, three days after drug treatment, MDA-MB-361 cells, read-out: IC50 MDA-MB-361.

Chain of PI3K-γ (P48736 whole entry, species assumed): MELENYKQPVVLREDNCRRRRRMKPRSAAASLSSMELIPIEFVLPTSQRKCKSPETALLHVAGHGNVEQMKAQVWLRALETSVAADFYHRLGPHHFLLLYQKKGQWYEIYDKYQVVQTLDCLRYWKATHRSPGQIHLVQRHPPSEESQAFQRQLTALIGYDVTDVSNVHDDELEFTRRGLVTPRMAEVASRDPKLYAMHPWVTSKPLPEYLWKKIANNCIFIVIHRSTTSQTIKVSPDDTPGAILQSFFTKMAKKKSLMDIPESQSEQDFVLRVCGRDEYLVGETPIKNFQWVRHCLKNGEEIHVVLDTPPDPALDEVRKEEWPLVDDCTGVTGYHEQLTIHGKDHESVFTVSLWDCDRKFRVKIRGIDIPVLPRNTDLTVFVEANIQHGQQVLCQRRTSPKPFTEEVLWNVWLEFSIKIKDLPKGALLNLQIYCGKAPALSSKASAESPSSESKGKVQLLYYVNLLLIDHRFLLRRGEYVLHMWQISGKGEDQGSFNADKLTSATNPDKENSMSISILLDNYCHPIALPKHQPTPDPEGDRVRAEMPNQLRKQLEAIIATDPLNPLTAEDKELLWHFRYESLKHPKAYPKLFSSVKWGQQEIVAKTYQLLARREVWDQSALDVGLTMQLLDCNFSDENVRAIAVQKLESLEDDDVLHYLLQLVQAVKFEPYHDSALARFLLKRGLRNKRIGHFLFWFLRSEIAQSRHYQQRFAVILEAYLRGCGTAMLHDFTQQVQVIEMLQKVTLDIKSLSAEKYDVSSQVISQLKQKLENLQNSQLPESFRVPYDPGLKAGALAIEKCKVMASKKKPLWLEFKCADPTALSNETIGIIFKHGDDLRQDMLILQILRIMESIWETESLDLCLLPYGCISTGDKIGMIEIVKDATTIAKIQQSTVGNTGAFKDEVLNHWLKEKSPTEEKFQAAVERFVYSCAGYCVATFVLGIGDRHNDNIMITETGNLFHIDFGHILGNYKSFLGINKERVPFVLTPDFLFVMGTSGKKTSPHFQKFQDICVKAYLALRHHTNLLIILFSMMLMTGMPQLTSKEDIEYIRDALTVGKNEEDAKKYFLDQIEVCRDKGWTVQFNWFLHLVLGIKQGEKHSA
Chain of PI3K-α (P42336 whole entry, species assumed): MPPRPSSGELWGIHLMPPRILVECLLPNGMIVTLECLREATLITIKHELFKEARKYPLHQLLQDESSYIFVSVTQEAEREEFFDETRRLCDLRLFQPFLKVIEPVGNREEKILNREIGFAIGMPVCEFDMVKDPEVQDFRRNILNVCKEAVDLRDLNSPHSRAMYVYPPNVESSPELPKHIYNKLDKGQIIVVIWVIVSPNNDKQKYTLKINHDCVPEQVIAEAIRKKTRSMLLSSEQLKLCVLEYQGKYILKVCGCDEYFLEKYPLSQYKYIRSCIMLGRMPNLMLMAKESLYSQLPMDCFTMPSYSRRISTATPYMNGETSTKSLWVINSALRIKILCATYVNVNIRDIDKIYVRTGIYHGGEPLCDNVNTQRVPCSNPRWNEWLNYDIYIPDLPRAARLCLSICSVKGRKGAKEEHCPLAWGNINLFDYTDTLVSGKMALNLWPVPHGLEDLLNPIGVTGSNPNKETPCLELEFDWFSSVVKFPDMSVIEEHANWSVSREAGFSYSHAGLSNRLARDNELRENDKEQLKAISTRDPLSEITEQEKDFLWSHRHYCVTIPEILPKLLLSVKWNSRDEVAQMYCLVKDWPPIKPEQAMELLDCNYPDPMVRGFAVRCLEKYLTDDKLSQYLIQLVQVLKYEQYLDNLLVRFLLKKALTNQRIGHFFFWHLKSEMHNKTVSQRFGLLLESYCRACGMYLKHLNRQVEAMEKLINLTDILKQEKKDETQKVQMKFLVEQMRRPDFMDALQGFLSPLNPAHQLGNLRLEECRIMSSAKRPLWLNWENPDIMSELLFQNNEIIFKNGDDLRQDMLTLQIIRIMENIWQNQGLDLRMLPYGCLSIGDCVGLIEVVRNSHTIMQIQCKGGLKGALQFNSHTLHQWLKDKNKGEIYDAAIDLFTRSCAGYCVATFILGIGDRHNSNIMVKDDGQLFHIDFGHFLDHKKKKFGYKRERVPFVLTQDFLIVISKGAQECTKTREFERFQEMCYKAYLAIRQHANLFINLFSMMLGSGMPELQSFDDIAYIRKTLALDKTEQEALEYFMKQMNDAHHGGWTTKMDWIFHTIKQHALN
Chain of PI3K-α (P27986 whole entry partner, species assumed): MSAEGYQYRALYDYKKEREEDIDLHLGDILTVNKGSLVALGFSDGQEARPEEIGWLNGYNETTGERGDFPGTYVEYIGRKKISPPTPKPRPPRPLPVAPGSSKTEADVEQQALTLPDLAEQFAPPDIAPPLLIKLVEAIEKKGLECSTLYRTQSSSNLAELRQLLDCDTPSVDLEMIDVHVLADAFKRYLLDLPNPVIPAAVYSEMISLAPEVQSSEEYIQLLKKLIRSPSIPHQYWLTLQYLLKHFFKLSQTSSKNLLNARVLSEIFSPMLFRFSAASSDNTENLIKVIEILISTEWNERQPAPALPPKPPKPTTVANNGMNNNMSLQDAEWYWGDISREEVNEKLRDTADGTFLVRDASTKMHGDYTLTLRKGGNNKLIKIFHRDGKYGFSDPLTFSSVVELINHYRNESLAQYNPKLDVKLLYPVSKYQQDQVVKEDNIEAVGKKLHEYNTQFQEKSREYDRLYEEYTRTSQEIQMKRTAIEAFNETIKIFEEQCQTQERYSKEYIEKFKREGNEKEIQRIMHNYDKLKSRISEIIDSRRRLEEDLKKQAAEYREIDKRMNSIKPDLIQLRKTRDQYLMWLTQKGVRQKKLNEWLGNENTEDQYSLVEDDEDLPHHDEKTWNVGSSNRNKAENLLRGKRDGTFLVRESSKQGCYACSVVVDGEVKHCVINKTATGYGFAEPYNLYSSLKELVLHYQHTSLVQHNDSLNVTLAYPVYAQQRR

In general, IC50 refers to the concentration that inhibits the measured activity by half. In the case of `O=C(Nc1ccc(C(=O)NCCN2CCCCC2)cc1)Nc1ccc(-c2nc(C3CCOCC3)nc(N3CCOCC3)n2)cc1` [Example 514, 4-[({4-[4-morpholin-4-yl-6-(tetrahydro-2H-pyran-4-yl)-1,3,5-triazin-2-yl]phenyl}carbamoyl)amino]-N-(2-piperidin-1-ylethyl)benzamide], the IC50 was 12 nM in test [1]; 15 nM on PI3K-γ; 0.17 nM on Human mTOR (FLAG-TOR); 1.6 nM on PI3K-α; < 3.2 nM in test [2] (72 h).
Turning to `CC(C)N1CCN(C(=O)c2ccc(NC(=O)Nc3ccc(-c4nc(N5CCOCC5)nc(N5CCOCC5)n4)cc3)cc2)CC1` [Example 515, 1-[4-(4,6-dimorpholin-4-yl-1,3,5-triazin-2-yl)phenyl]-3-(4-{[4-(1-methylethyl)piperazin-1-yl]carbonyl}phenyl)urea], the IC50 in test [1] stood at 12 nM; at PI3K-γ it was 7.6 nM; on Human mTOR (FLAG-TOR) it was 1.55 nM; on PI3K-α it was 0.4 nM; in test [2] (MDA-MB-361, 72 h), 3 nM.
For `CC(C)N1CCN(C(=O)c2ccc(NC(=O)Nc3ccc(-c4nc(O[C@H]5CCOC5)nc(N5CCOCC5)n4)cc3)cc2)CC1` [Example 522, 1-(4-{[4-(1-methylethyl)piperazin-1-yl]carbonyl}phenyl)-3-(4-{4-morpholin-4-yl-6-[(3S)-tetrahydrofuran-3-yloxy]-1,3,5-triazin-2-yl}phenyl)urea], the IC50 in test [1] came to 11 nM; at PI3K-γ, 7.5 nM; on Human mTOR (FLAG-TOR), 1.06 nM; at PI3K-α it was 1.4 nM; in test [2] (72 h), 3 nM.
For the compound `CCc1nc(-c2ccc(NC(=O)Nc3ccc(C(=O)N4CCN(c5ccccn5)CC4)cc3)cc2)nc(N2CCOCC2)n1` [Example 534, 1-[4-(4-ethyl-6-morpholin-4-yl-1,3,5-triazin-2-yl)phenyl]-3-{4-[(4-pyridin-2-ylpiperazin-1-yl)carbonyl]phenyl}urea], the IC50 came out at 73.7 nM in test [1]; 11.1 nM on PI3K-γ; 53.4 nM at Human mTOR (FLAG-TOR); 2.1 nM at PI3K-α; 32.3 nM in test [2] (72 h).
The matching figures for `CN(C)CCN(C)C(=O)c1ccc(NC(=O)Nc2ccc(-c3nc(-c4ccccc4)nc(N4CCOCC4)n3)cc2)cc1` [Example 539, N-[2-(dimethylamino)ethyl]-N-methyl-4-({[4-(4-morpholin-4-yl-6-phenyl-1,3,5-triazin-2-yl)phenyl]carbamoyl}amino)benzamide]: 161 nM, 16 nM, 0.0085 nM, 1.1 nM and 9 nM.
Regarding `COC(=O)c1ccc(NC(=O)Nc2ccc(-c3nc(N4CCOC[C@@H]4C)nc(N4CCOC[C@@H]4C)n3)cc2)cc1` [Example 540, methyl 4-{[(4-{4,6-bis[(3S)-3-methylmorpholin-4-yl]-1,3,5-triazin-2-yl}phenyl)carbamoyl]amino}benzoate], the half-maximal inhibitory concentration (IC50) turned out to be 309 nM in test [1]; 121 nM on PI3K-γ; 0.0034 nM at Human mTOR (FLAG-TOR); 54 nM at PI3K-α; 165 nM in test [2] (72 h).
Take `O=C(Nc1ccc(C(=O)O)cc1)Nc1ccc(-c2nc(-c3ccccc3)nc(N3CCOCC3)n2)cc1` [Example 541, 4-({[4-(4-morpholin-4-yl-6-phenyl-1,3,5-triazin-2-yl)phenyl]carbamoyl}amino)benzoic acid]: the concentration for half-maximal inhibition (IC50) in test [1] stood at 1760 nM; at PI3K-γ it was 57 nM; at Human mTOR (FLAG-TOR), 17 nM; at PI3K-α it was 28 nM; in test [2] (MDA-MB-361, 72 h), 964 nM.
With `Cc1ccc(-c2nc(-c3ccc(NC(=O)Nc4ccc(C(=O)NCCN(C)C)cc4)cc3)nc(N3CCOCC3)n2)cc1` [Example 542, N-[2-(dimethylamino)ethyl]-4-[({4-[4-(4-methylphenyl)-6-morpholin-4-yl-1,3,5-triazin-2-yl]phenyl}carbamoyl)amino]benzamide], the IC50 came out at 569 nM in test [1]; 67 nM at PI3K-γ; 21.5 nM on Human mTOR (FLAG-TOR); 8 nM on PI3K-α; 281 nM in test [2] (72 h).
For the compound `CN1CCN(C(=O)c2ccc(NC(=O)Nc3ccc(-c4nc(-c5ccccc5)nc(N5CCOCC5)n4)cc3)cc2)CC1` [Example 543, 1-{4-[(4-methylpiperazin-1-yl)carbonyl]phenyl}-3-[4-(4-morpholin-4-yl-6-phenyl-1,3,5-triazin-2-yl)phenyl]urea], the IC50 is 262 nM in test [1]; 15.5 nM on PI3K-γ; 42 nM on Human mTOR (FLAG-TOR); 3.5 nM on PI3K-α; < 31 nM in test [2] (MDA-MB-361, 72 h).
As to `CN(C)CCNC(=O)c1ccc(NC(=O)Nc2ccc(-c3nc(-c4ccccc4)nc(N4CCOCC4)n3)cc2)cc1` [Example 545, N-[2-(dimethylamino)ethyl]-4-({[4-(4-morpholin-4-yl-6-phenyl-1,3,5-triazin-2-yl)phenyl]carbamoyl}amino)benzamide], the half-inhibitory concentration (IC50) in test [1] is 219 nM; at PI3K-γ, 17 nM; on Human mTOR (FLAG-TOR), 10.9 nM; at PI3K-α, 4 nM; in test [2] (72 h), 30 nM.
The matching figures for `C[C@H]1COCCN1c1nc(-c2ccc(NC(=O)Nc3ccc(C(=O)NCCN(C)C)cc3)cc2)nc(N2CCOC[C@@H]2C)n1` [Example 546, 4-{[(4-{4,6-bis[(3S)-3-methylmorpholin-4-yl]-1,3,5-triazin-2-yl}phenyl)carbamoyl]amino}-N-[2-(dimethylamino)ethyl]benzamide]: 25 nM, 73.5 nM, 0.225 nM, 3.5 nM and 7 nM.
Consider `Cc1ccc(-c2nc(-c3ccc(NC(=O)Nc4ccc(C(=O)N5CCN(C(C)C)CC5)cc4)cc3)nc(N3CCOCC3)n2)cc1` [Example 547, 1-{4-[(4-isopropylpiperazin-1-yl)carbonyl]phenyl}-3-{4-[4-(4-methylphenyl)-6-morpholin-4-yl-1,3,5-triazin-2-yl]phenyl}urea], for which the concentration for half-maximal inhibition (IC50) in test [1] was determined as 197 nM; on PI3K-γ it was 70 nM; on Human mTOR (FLAG-TOR), 7.75 nM; on PI3K-α it was 11 nM; in test [2] (MDA-MB-361, 72 h), 68 nM.
With `Cc1ccc(-c2nc(-c3ccc(NC(=O)Nc4ccc(C(=O)NCCN5CCCC5)cc4)cc3)nc(N3CCOCC3)n2)cc1` [Example 548, 4-[({4-[4-(4-methylphenyl)-6-morpholin-4-yl-1,3,5-triazin-2-yl]phenyl}carbamoyl)amino]-N-(2-pyrrolidin-1-ylethyl)benzamide], the IC50 in test [1] is 869 nM; on PI3K-γ, 387 nM; on Human mTOR (FLAG-TOR), 9.75 nM; at PI3K-α, 40 nM; in test [2] (72 h), 524 nM.
The matching figures for `COCCNC(=O)c1ccc(NC(=O)Nc2ccc(-c3nc(-c4ccc(C)cc4)nc(N4CCOCC4)n3)cc2)cc1` [Example 550, N-(2-methoxyethyl)-4-[({4-[4-(4-methylphenyl)-6-morpholin-4-yl-1,3,5-triazin-2-yl]phenyl}carbamoyl)amino]benzamide]: 711 nM, 374 nM, 12.4 nM, 47 nM and 315 nM.
The matching figures for `COCCNC(=O)c1ccc(NC(=O)Nc2ccc(-c3nc(-c4ccccc4)nc(N4CCOCC4)n3)cc2)cc1` [Example 551, N-(2-methoxyethyl)-4-({[4-(4-morpholin-4-yl-6-phenyl-1,3,5-triazin-2-yl)phenyl]carbamoyl}amino)benzamide]: 270 nM, 118 nM, 10 nM, 24 nM and 106 nM.
The matching figures for `O=C(Nc1ccc(C(=O)NCCN2CCCC2)cc1)Nc1ccc(-c2nc(-c3ccccc3)nc(N3CCOCC3)n2)cc1` [Example 552, 4-({[4-(4-morpholin-4-yl-6-phenyl-1,3,5-triazin-2-yl)phenyl]carbamoyl}amino)-N-(2-pyrrolidin-1-ylethyl)benzamide]: 243 nM, 127 nM, 3.55 nM, 11.5 nM and 105 nM.
Consider `Cc1ccc(-c2nc(-c3ccc(NC(=O)Nc4ccc(C(=O)NCCCN(C)C)cc4)cc3)nc(N3CCOCC3)n2)cc1` [Example 554, N-[3-(dimethylamino)propyl]-4-[({4-[4-(4-methylphenyl)-6-morpholin-4-yl-1,3,5-triazin-2-yl]phenyl}carbamoyl)amino]benzamide], for which the IC50 in test [1] was > 1000 nM; at PI3K-γ, 156 nM; on Human mTOR (FLAG-TOR) it was 11.9 nM; on PI3K-α it was 15 nM; in test [2] (72 h), 521 nM.
The matching figures for `CN(C)CCCNC(=O)c1ccc(NC(=O)Nc2ccc(-c3nc(-c4ccccc4)nc(N4CCOCC4)n3)cc2)cc1` [Example 556, N-[3-(dimethylamino)propyl]-4-({[4-(4-morpholin-4-yl-6-phenyl-1,3,5-triazin-2-yl)phenyl]carbamoyl}amino)benzamide]: 379 nM, 54 nM, 4.4 nM, 8.5 nM and 128 nM.
The matching figures for `O=C(Nc1ccncc1)Nc1ccc(-c2nc(-c3cccs3)nc(N3CCOCC3)n2)cc1` [Example 557, 1-{4-[4-morpholin-4-yl-6-(2-thienyl)-1,3,5-triazin-2-yl]phenyl}-3-pyridin-4-ylurea]: 31 nM, 64 nM, 8.55 nM, 18 nM and 34 nM.
